# Assays:
# Caco-2 cells = test: Uptake of CLA enantiomers in Caco-2 cells (LC-MS/MS); format: in vitro ADME, Human; conditions: for Intracellular concentration: Mean±SD, n = 3
# Method: Caco-2 cells on 6-well plates (5 × 10^5 cells/well) were cultured in MEM containing 10% (v/v) FBS, 1% (v/v) NEAA, 100 units/mL penicillin and 100 μg/mL streptomycin sulphate at 37°C with 95% air and 5% CO2. When 80%–90% confluence was observed using an inverted light microscope, the cells were treated, respectively, with (−)CLA or (+)CLA at 1, 2.5 and 5 μmol/L for 2 h, washed 3 times with ice-cold PBS, collected into 1.5-mL Eppendorf tubes and centrifuged at 1500 rpm for 5 min. The precipitates were lysed with 80 μL of lysis buffer described above, frozen with liquid nitrogen, then thawed in water at 37°C three times, and then centrifuged at 10,000 rpm for 10 min (4°C). We used 10 μL of supernatant for the determination of protein concentration using Lowry’s method with bovine serum albumin as the standard, and the residue of the supernatants was subjected to extraction with ethyl acetate. The internal standard (IS) was 20 μL of glipizide (5.2 μg/mL). Extracted CLA enantiomer and glipizide were measured by a liquid chromatography-tandem mass spectrometr(LC-MS/MS).
# The LC-MS/MS system consisted of an Alliance HT 2795 LC pump, an autosampler, and a Micromass Quattro Premier tandem quadrupole mass spectrometer with an electrospray ionization (ESI) source and Masslynx version 4.1 software (Waters Corp., Milford, MA, USA). The separation of CLA enantiomer and glipizide was performed using an XBridge C18 column (2.1 mm × 50 mm; i.d., 3.5 μm) (Waters Corp., Milford, MA, USA). The column temperature was maintained at 22°C, and the sample injection volume was 20 μL in the autosampler at 4°C. Mobile phases A and B were water with 0.1% (v/v) acetic acid and acetonitrile with 0.1% (v/v) acetic acid, respectively. Gradient elution was used at a flow rate of 0.25 mL/min for 8 min with 80% A and 20% B for 0–2 min, 5% A and 95% B for 2–4 min and 80% A and 20% B for 4.01–8 min. The LC system was connected to the mass spectrometer by an electrospray interface. The positive-ion ESI mode was selected, and the electrospray capillary voltage was 3.5 kV. Desolvation gas (ultrapure nitrogen) flow and cone gas flow were provided separately at rates of 600 L/h and 50 L/h, and source and desolvation temperatures were set at 110°C and 450°C, respectively. Argon was used as a collision gas in collision-induced dissociation of precursor ions at a flow rate of 0.27 mL/min. The data were acquired using multiple reaction monitoring mode and analysed by Masslynx software 4.1. The main parameters (retention time, ion channel, cone voltage and collision energy) were as follows: 2.66 min, 298.2–174.1, 25 V and 17 V for CLA enantiomer; and 2.97 min, 446.7–321.2, 25 V and 12 V for glipizide (IS), respectively. The lower limit of quantification of CLA enantiomer was 0.25 ng/mL. The mean relative recovery was 89%, and intra-assay and inter-assay coefficients of variation were <15%. The range of linearity was 0.25–200 ng/mL with r = 0.999. The concentrations of (−) or (+)CLA were quantified by standard curves according to their peak areas against the IS.
# CYP3A1 = tested on: CYP3A1; parameters: method as in PMID 23684935, PMID 12692891; conditions: rat liver; cited from earlier work
# [1] = parameters: method as in PMID 23684935; conditions: cited from earlier work
# [2] = dose of CLA enantiomer 1.0 μmol/L, 2 h
# [3] = dose of CLA enantiomer 2.5 μmol/L, 2 h
# [4] = dose of CLA enantiomer 5.0 μmol/L, 2 h
"Ratio (-)/(+) of intracellular concentrations (Caco-2 cells; 1.0 μmol/L, 2 h)","Ratio (-)/(+) of intracellular concentrations (Caco-2 cells; 2.5 μmol/L, 2 h)","Ratio (-)/(+) of intracellular concentrations (Caco-2 cells; 5.0 μmol/L, 2 h)",Intracellular concentration (Caco-2 cells; [2]) [ng/mL],Intracellular concentration (Caco-2 cells; [3]) [ng/mL],Intracellular concentration (Caco-2 cells; [4]) [ng/mL],"Ratio (-)/(+) of intracellular concentrations (Caco-2 cells; in the presence of cyclosporine A, data not shown)",Compound,"Induction of CYP3A1 expression, comparison of enantiomers (CYP3A1)",Ratio [(+)/(−)] of cumulative amounts of biliary excretion [1],Ratio [(+)/(−)] of cumulative amounts of urinary excretion [1]
2.593,2.167,1.893,2.834 ± 0.808,4.829 ± 0.603,8.853 ± 2.505,1.091,"CN1C(=O)[C@@H](O)[C@H](c2ccccc2)[C@@H]1[C@@H](O)c1ccccc1 [(−)CLA, 3S, 4R, 5R, 6S-clausenamide]",higher expression of CYP3A1 than the (+)-isomer,,
,,,1.093 ± 0.233,2.228 ± 0.065,4.677 ± 1.029,,"CN1C(=O)[C@H](O)[C@@H](c2ccccc2)[C@H]1[C@H](O)c1ccccc1 [(+)CLA, 3R,4S,5S,6R-CLA]",,3.49,3.81

# Reference: PMC4546427, “Stereoselective Regulation of P-gp Activity by Clausenamide Enantiomers in Caco-2, KB/KBv and Brain Microvessel Endothelial Cells” (PLoS ONE, 2015)
